Laboratory results from patent publication US6838574B1, “Dicarba-closo-dodecarborane derivatives” (Institute of Medicinal Molecular Design, Inc., priority 1999, dated 2005).

Experiments:
Type in all cases: cell-based
[1] = biological target: T1, rat estrogen receptor (pCI-rER α) (Rattus norvegicus, UniProt P06211); assay: Antiestrogenic activity, luciferase reporter gene assay with coexisting β-estradiol; settings: for IC50: coexisting β-estradiol 1 × 10^−9M
T1 construct: expressed in transfected cells; host or cells: COS-1 cells
T1 sequence (P06211 1-600): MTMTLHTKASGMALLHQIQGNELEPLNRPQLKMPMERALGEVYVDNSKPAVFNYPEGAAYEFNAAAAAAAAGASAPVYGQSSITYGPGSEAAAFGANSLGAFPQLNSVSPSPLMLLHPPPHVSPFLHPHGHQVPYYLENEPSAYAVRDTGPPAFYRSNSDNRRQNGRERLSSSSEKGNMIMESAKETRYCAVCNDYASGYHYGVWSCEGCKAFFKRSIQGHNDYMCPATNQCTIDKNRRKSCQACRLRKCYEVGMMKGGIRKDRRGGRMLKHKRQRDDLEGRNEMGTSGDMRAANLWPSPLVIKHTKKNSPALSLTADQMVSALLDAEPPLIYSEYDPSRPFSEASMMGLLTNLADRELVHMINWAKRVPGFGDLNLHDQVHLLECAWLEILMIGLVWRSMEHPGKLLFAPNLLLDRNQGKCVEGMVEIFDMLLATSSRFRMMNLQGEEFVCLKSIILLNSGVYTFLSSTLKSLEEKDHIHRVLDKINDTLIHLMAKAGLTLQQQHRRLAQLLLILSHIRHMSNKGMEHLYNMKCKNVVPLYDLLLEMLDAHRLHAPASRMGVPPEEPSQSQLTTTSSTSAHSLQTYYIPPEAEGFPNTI
Experimental: As estrogenic activity, estrogen receptor-dependent transcriptional activation abilities of the test compounds were determined by the r porter gene assay using luciferase gene. COS-1 cells were cultured using a DMEM medium containing an antibiotics and 5% bovine fetal serum in the wells of 24 well plates (cell density: 5 to 6×10^4/well) at 37° C. for one night under 5% carbon dioxide. On the next day, the medium was changed to DMEM medium not containing Phenol Red. Using gene introducing reagent Tfx-20 (Promega), reporter plasmid EREx3-pGL-TK, in which rat estrogen receptor expression plasmid pCI-rER α and an estrogen responsive sequence were placed upstream of the luciferase gene, and β-galactosidase expression plasmid pCMV β used as an internal standard were introduced into cells. The cells were cultured for 2 h, and the medium was changed to DMEM not containing Phenol Red but containing active charcoal-treated serum.
The culture was added with each test compound dissolved in ethanol at various concentrations (final ethanol concentration at 0.5%) and then cultivation was continued at 37° C. for one night under 5% carbon dioxide. On the next day, the cells were lysed and enzymatic activity of luciferase expressed was measured by using a chemiluminometer. The values were standardized based on galactocidase enzymatic activity, and then compared with the values obtained by experiments using no test compound and used as values of activity at various concentrations. […] The estrogenic activities in the table are shown as concentrations for 50% activity (EC50 values) which give 50% activities relative to luciferase activity regarded as 100 that is expressed by treatment with the control compound β-estradiol at 10 nM. Each compound tested in this experiment has a high estrogenic activity.
As antiestrogenic activities, estrogen receptor-dependent transcriptional activation abilities of the test compounds were measured by the reporter gene assay using luciferase gene in the same manner as the estrogen activity measurement. In Table 7, antiestrogenic activities of test compounds are indicated as IC50 values as 50% inhibitory concentrations relative to the luciferase activity regarded as 100 which is expressed by β-estradiol at 1 nM coexisting in the experimental system. Each compound tested in this experiment has antiestrogenic activity.

[2] = system: human promyelocytic leukemia cell strain HL-60; assay: HL-60 differentiation induction, test compound alone; settings: for percentage of differentiated cells, no coexisting compound: HL-60, 4 days, control <10
Experimental: Inhibitory activity against proliferation of human promyelocytic leukemia cell strain HL-60 was evaluated an index of anti-leukemia activity. Subcultured HL-60 cells were seeded with the initial cell number of 8×10^4 cells/ml in the RPMI 1640 medium containing bovine fetal serum and an antibiotics. Each test compound was added at various concentrations and the mixture was cultured at 37° C. Four days later, cell number was counted. Anti-leukemia activity of each test compound was shown in the tables as percentage values of differentiated cells, which cells were not differentiated in the absence of the test drug, […] observation and NBT reducing ability of the cells as indexes.

[3] = system: human promyelocytic leukemia cell strain HL-60; assay: HL-60 differentiation with coexisting differentiation inducer Am80 (anti-differentiation activity); settings: for percentage of differentiated cells, coexisting compound Am80: coexisting Am80 3.3 × 10^−10M, control 55
[4] = system: human promyelocytic leukemia cell strain HL-60; assay: HL-60 differentiation with coexisting HX630 (enhancer of differentiation inducers); settings: for percentage of differentiated cells, coexisting compound HX630: coexisting HX630 1 × 10^−7M, control <10; for differentiation inducing activity with HX630 (in words): coexisting HX630 (Table 3)
[5] = test compound 1 μM, morphology and NBT reducing ability

| IC50 [1] [nM] | Compound | percentage of differentiated cells, no coexisting compound [2, 5] [%] | percentage of differentiated cells, coexisting compound Am80 ([3]; HL-60) [%] | percentage of differentiated cells, coexisting compound HX630 ([4]; HL-60) [%] | further results |
| --- | --- | --- | --- | --- | --- |
| 600 | 1-(2-hydroxyphenyl)-12-(3-dimethylaminoethoxyphenyl)-1,12-dicarba-closo-dodecaborane [BR172] | – | – | – | – |
| 200 | 1-(3-hydroxyphenyl)-2-(3-dimethylaminoethoxyphenyl)-1,2-dicarba-closo-dodecaborane [BR372] | – | – | – | – |
| 500 | 1-(3-hydroxyphenyl)-7-(3-dimethylaminoethoxyphenyl)-1,7-dicarba-closo-dodecaborane [BR272] | – | – | – | – |
| 30 | 1-(4-hydroxyphenyl)-2(4-dimethylamino-ethoxyphenyl)-1,2-dicarba-closo-dodecaborane [BR362] | – | – | – | antiestrogenic activity (in words) ([1]; coexisting β-estradiol 1 nM, tamoxifen as control): strong activity comparable to that of antiestrogenic drug tamoxifen |
| 200 | 1-(4-hydroxyphenyl)-7-(4-dimethylaminoethoxyphenyl)-1,7-dicarba-closo-dodecaborane [BR262] | – | – | – | – |
| 10 | 1-(4-hydroxyphenyl)-12-(4-dimethylaminoethoxyphenyl)-1,12-dicarba-closo-dodecaborane [BR162] | – | – | – | – |
| – | 4-[2-(1,2-dicarba-closo-dododecaboran-1-yl)-(E)-ethenylcarboxamide]benzoic acid [BR110] | 12 | 60 | 48 | differentiation inducing activity with HX630 (in words) [4]: differentiation inducing activities |
| – | 4-[3-(2-methyl-1,2-dicarba-closo-dodecaboran-1-yl)phenylcarbamoyl]benzoic acid [BR251] | 8 | 55 | 77 | differentiation inducing activity with HX630 (in words) [4]: differentiation inducing activities |
| – | 4-[4-(2-methyl-1,2-dicarba-closo-dodecaboran-1-yl) phenylamino]benzoic acid [BR401] | 70 | 60 | 75 | differentiation inducing activity at low concentration (in words) ([2]; 0.01 μM test compound, HL-60): activities were maintained; percentage of differentiated cells, no coexisting compound ([2]; test compound 0.01 μM): 26%; differentiation inducing activity (in words) ([2]; test compound alone, HL-60): strong differentiation inducing activities |
| – | 4-[4-(2-methyl-1,2-dicarba-closo-dodecaboran-1-yl)-phenylcarbamoyl]benzoic acid [BR201] | 11 | 5 | 12 | anti-differentiation activity (in words) ([3]; coexisting Am80 (Table 2)): strong anti-differentiation activity |
| – | 4-[[3-(1,2-Dicarba-closo-dodecaboran-1-yl)phenyl]carboxamide]benzoic acid [BR350] | 11 | 60 | 48 | differentiation inducing activity with HX630 (in words) [4]: differentiation inducing activities |
| – | 4-{N-methyl-[2-methyl-4-(2-methyl-1,2-dicarba-closo-dodecaboran-1-yl)]phenylamino}benzoic acid [BR431] | 10 | 55 | 12 | – |
| – | 4-{[4-(1,2-dicarba-closo-dodecaboran-1-yl)phenyl]carboxamide}benzoic acid [BR300] | 6 | 37 | 8 | – |
| – | CC1(C)CCC(C)(C)c2cc(NC(=O)c3ccc(C(=O)O)cc3)ccc21 [Am80, 4-[(5,6,7,8-tetrahydro-5,5,8,8-tetramethyl-2-naphthalenyl)carbamoyl]benzoic acid, reference compound] | – | – | – | percentage of differentiated cells, control (Am80 without test compound) ([3]; Am80 3.3 × 10^−10M alone, HL-60): Am80 3.3 × 10^−10M (control: 55) % |
| – | CC1(C)CCC(C)(C)c2cc3c(cc21)Sc1ccccc1N=C3c1ccc(C(=O)O)cc1 [HX630, 4-[2,3-(2,5-dimethyl-2,5-hexano)dibenzo-[b,f]-[1,4]thiazepin-11-yl]benzoic acid, reference compound] | – | – | – | percentage of differentiated cells, control (HX630 without test compound) ([4]; HX630 1 × 10^−7M alone, HL-60): HX630 1 × 10^−7M (control: <10) % |
